Assay results taken from US9120749B2, “Quinoline derivatives and MELK inhibitors containing the same” (ONCOTHERAPY SCIENCE, INC., priority 2010, dated 2015).
Where a name gives a salt, the structure may show the parent alone. Read-outs that look alike come from different tables or passages of the source.

Assays:
MELK = MELK (Homo sapiens, UniProt Q14680); test: Kinase assay: MELK activity, phosphorylation of FITC-labeled histone H3 peptide measured by IMAP fluorescence polarization; format: biochemical; conditions: read-out: IC50 (μM) (kinase assay)
How it was run: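 Polarization of fluorescence served as the signal for MELK turnover of FITC-conjugated histone H3 peptide. Binding solution quenched each reaction, and plates stood 0.5 hour at room temperature before reading.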

T47D cells = test: Cell-based assay: anti-proliferative activity, Cell Counting Kit-8, 72 hours (T47D)
How it was run: (§1)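 Target-specific cytotoxicity: seeded cells treated with MELK inhibitor candidates for 72 h, proliferation quantified via CCK-8, IC50 fitted.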

22Rv1 = test: Cell-based assay: anti-proliferative activity, Cell Counting Kit-8, 72 hours (22Rv1); conditions: Homo sapiens; 22Rv1 cells
Description: Active candidate inhibitors against MELK were evaluated for their target-specific cytotoxicity using T47D, A549, BT-549, and HT-1197 cells was used for negative control. 100 micro-L of cell suspension was seeded onto 96-well microtiter plate (ViewPlate-96FTC, PerkinElmer). The initial cell concentration of T47D, A549, BT-549, and HT-1197 were 3,000 cells/well, 2,000 cells/well and 2,500 cells/well, respectively. Cellular growth was determined using Cell Counting Kit-8 (DOJINDO) at 72 hours after the exposure of the candidate inhibitors. […] Accurate IC50 values were calculated as described previously.

HT-1197 cells = test: Cell-based assay: anti-proliferative activity, Cell Counting Kit-8, 72 hours (HT-1197, negative control without MELK expression); conditions: 72 hours
How it was run: as §1

DU4475 = test: Cell-based assay: anti-proliferative activity, Cell Counting Kit-8, 72 hours (DU4475)
A549 cells = test: Cell-based assay: anti-proliferative activity, Cell Counting Kit-8, 72 hours (A549); conditions: 72 hours
How it was run: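 Cell Counting Kit-8 read-out of A549 growth after 72 hours of inhibitor exposure, cells plated in 96-well format. Values reported as IC50.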

22Rv1 cells = test: Cell-based assay: anti-proliferative activity, Cell Counting Kit-8, 72 hours (22Rv1); conditions: Homo sapiens
DU4475 cells = test: Cell-based assay: anti-proliferative activity, Cell Counting Kit-8, 72 hours (DU4475); conditions: Homo sapiens, DU-4475
[1] = 50 micro-M ATP, FITC-labeled histone H3 peptide substrate, IMAP fluorescence polarization
[2] = Homo sapiens, HT1197, 72 h, HT1197 cells (negative control, no MELK expression)
[3] = Homo sapiens, DU-4475, DU4475 cells
[4] = HT1197 cells (negative control, no MELK expression), hydrochloride
[5] = MELK kinase assay, IMAP fluorescence polarization, 50 micro-M ATP
[6] = Homo sapiens, HT1197, 72 h, HT1197 cells (negative control)

Sequence of MELK (Q14680 whole entry, looked up): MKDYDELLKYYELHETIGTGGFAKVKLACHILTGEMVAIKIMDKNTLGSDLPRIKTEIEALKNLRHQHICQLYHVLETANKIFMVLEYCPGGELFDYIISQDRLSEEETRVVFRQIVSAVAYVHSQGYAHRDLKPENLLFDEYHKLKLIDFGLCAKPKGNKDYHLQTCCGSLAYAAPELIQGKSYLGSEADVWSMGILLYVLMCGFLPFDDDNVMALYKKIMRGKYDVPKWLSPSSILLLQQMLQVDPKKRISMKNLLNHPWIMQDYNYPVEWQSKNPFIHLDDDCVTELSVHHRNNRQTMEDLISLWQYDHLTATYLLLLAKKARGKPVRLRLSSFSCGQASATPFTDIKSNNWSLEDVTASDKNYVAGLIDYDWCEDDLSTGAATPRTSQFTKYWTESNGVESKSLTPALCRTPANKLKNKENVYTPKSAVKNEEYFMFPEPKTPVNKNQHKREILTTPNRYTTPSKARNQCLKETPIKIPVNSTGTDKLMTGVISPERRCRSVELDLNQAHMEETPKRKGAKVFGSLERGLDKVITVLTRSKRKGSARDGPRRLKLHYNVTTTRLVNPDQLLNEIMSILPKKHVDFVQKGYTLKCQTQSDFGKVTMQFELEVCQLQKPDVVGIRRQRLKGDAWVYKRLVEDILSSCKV

SMILES | IC50 (T47D cells; Homo sapiens, T47D, 72 h) [µM] | IC50 (22Rv1) [µM] | IC50 (A549 cells; Homo sapiens, A549, 72 h) [µM] | IC50 (22Rv1 cells) [µM] | IC50 (MELK; [5]) [µM] | IC50 (HT-1197 cells; [6]) [µM] | IC50 (DU4475 cells) [µM] | also measured
O=C(c1cnc2ccc(-c3cc(F)c(O)c(Cl)c3)cc2c1Nc1ccc(CN2CCCC2)cc1)C1CC1 [Example 396, {6-(3-chloro-5-fluoro-4-hydroxyphenyl)-4-[4-(pyrrolidin-1-ylmethyl)phenylamino]quinolin-3-yl}(cyclopropyl)methanone] | 0.21 | 0.38 | 0.087 | – | – | – | – | IC50 (MELK; [1]): 0.0088 µM; IC50 (HT-1197 cells; [2]): 1.6 µM; IC50 (DU4475; [3]): 0.084 µM
CC(=O)c1cnc2ccc(-c3cc(Cl)c(O)c(Cl)c3)cc2c1Nc1ccc(CN2CCCC2)cc1 [Example 416, 1-(6-(3,5-dichloro-4-hydroxyphenyl)-4-(4-(pyrrolidin-1-ylmethyl)phenylamino)quinolin-3-yl)ethanone hydrobromide] | – | 0.19 | – | – | – | – | – | IC50 (MELK; 50 micro-M ATP, FITC-labeled histone H3 peptide substrate, IMAP fluorescence polarization, hydrobromide): 0.0032 µM; IC50 (T47D cells; 72 hours, hydrobromide): 0.066 µM; IC50 (HT-1197 cells; HT1197 cells (negative control, no MELK expression), hydrobromide): 6.1 µM; IC50 (DU4475; DU4475 cells, hydrobromide): 0.053 µM; IC50 (A549 cells; hydrobromide): 0.11 µM
NCc1ccc(Nc2c(C(=O)C3CC3)cnc3ccc(-c4cc(F)c(O)c(Cl)c4)cc23)cc1 [Example 505, (4-(4-(aminomethyl)phenylamino)-6-(3-chloro-5-fluoro-4-hydroxyphenyl)quinolin-3-yl)(cyclopropyl)methanone hydrochloride] | – | 0.088 | – | – | – | – | – | IC50 (MELK; hydrochloride): 0.0027 µM; IC50 (T47D cells; 72 hours, hydrochloride): 0.063 µM; IC50 (HT-1197 cells; [4]): 0.4 µM; IC50 (DU4475; DU4475 cells, hydrochloride): 0.026 µM; IC50 (A549 cells; hydrochloride): 0.067 µM
CN(C)C[C@H]1CC[C@H](Nc2c(S(C)(=O)=O)cnc3ccc(-c4cc(Cl)c(O)c(Cl)c4)cc23)CC1 [Example 421] | – | 0.64 | – | – | – | – | – | IC50 (MELK; [1]): 0.0017 µM; IC50 (T47D cells; 72 hours): 0.47 µM; IC50 (HT-1197 cells; HT1197 cells (negative control, no MELK expression)): 2.1 µM; IC50 (DU4475; DU4475 cells): 0.086 µM; IC50 (A549 cells): 0.68 µM
COc1cc(-c2ccc3ncc(C(=O)C4CC4)c(N[C@H]4CC[C@H](CN)CC4)c3c2)cc(Cl)c1O [Example 494, (4-(4-(aminomethyl)cyclohexylamino)-6-(3-chloro-4-hydroxy-5-methoxyphenyl)quinolin-3-yl)(cyclopropyl)methanone hydrochloride] | – | 0.13 | – | – | – | – | – | IC50 (MELK; hydrochloride): 0.0016 µM; IC50 (T47D cells; 72 hours, hydrochloride): 0.081 µM; IC50 (HT-1197 cells; [4]): 0.48 µM; IC50 (DU4475; DU4475 cells, hydrochloride): 0.055 µM; IC50 (A549 cells; hydrochloride): 0.085 µM
O=C(c1cnc2ccc(-c3cc(F)c(O)c(Cl)c3)cc2c1Nc1ccc(N2CCNCC2)nc1)C1CC1 [Example 425, (6-(3-chloro-5-fluoro-4-hydroxyphenyl)-4-(6-(piperazin-1-yl)pyridin-3-ylamino)quinolin-3-yl)(cyclopropyl)methanone] | 0.042 | 0.082 | 0.16 | – | – | – | – | IC50 (MELK; [1]): 0.0027 µM; IC50 (HT-1197 cells; [2]): 1.4 µM; IC50 (DU4475; [3]): 0.044 µM
NCc1ccc(Nc2c(C(=O)C3CC3)cnc3ccc(-c4cc(Cl)c(O)c(Cl)c4)cc23)cc1 [Example 508, (4-(4-(aminomethyl)phenylamino)-6-(3,5-dichloro-4-hydroxyphenyl)quinolin-3-yl)(cyclopropyl)methanone hydrochloride] | – | 0.099 | – | – | – | – | – | IC50 (MELK; hydrochloride): 0.0017 µM; IC50 (T47D cells; 72 hours, hydrochloride): 0.078 µM; IC50 (HT-1197 cells; [4]): 0.49 µM; IC50 (DU4475; DU4475 cells, hydrochloride): 0.02 µM; IC50 (A549 cells; hydrochloride): 0.067 µM
COc1cc(-c2cc3c(N[C@H]4CC[C@H](CN5CCCC5)CC4)c(C(C)=O)cnc3cc2F)cc(Cl)c1O [Example 926, 1-(6-(3-chloro-4-hydroxy-5-methoxy-phenyl)-7-fluoro-4-((1R,4R)-4-(pyrrolidin-1-ylmethyl)cyclohexyl)amino)quinolin-3-yl)ethanone hydrochloride] | 2.7 | – | 0.61 | 0.69 | 0.0079 | 5 | 0.55 | –
CC(=O)c1cnc2ccc(-c3cc(F)c(O)c(Cl)c3)cc2c1N[C@H]1CC[C@H](NC(=O)[C@@H](N)C(C)(C)C)CC1 [Example 914, (S)-N-((1r,4S)-4-((3-acetyl-6-(3-chloro-5-fluoro-4-hydroxyphenyl)quinolin-4-yl)amino)cyclohexyl)-2-amino-3,3-dimethylbutanamide hydrochloride] | 0.075 | – | 0.65 | 0.28 | 0.028 | 3.6 | 0.19 | –
CS(=O)(=O)c1cnc2ccc(-c3cc(F)c(O)c(Cl)c3)cc2c1Nc1cccc(CCN2CCCC2)c1 [Example 879, 2-chloro-6-fluoro-4-(3-(methylsulfonyl)-4-((3-(2-(pyrrolidin-1-yl)ethyl)phenyl)amino)quinolin-6-yl)phenol hydrochloride] | 1.1 | – | 3.8 | 3 | 0.011 | 9 | 0.9 | –
CN(C)Cc1ccc(Nc2c(S(C)(=O)=O)cnc3ccc(-c4cc(Cl)c(O)c(Cl)c4)cc23)cc1 [Example 401, 2,6-dichloro-4-(4-(4-((dimethylamino)methyl)phenylamino)-3-(methylsulfonyl)quinolin-6-yl)phenol hydrochloride] | – | 0.52 | – | – | – | – | – | IC50 (MELK; 50 micro-M ATP, FITC-labeled histone H3 peptide substrate, IMAP fluorescence polarization, hydrochloride): 0.0055 µM; IC50 (T47D cells; 72 hours, hydrochloride): 0.19 µM; IC50 (HT-1197 cells; [2]): 2.2 µM; IC50 (DU4475; DU4475 cells, hydrochloride): 0.11 µM; IC50 (A549 cells; hydrochloride): 0.44 µM
CC(=O)c1cnc2ccc(-c3ccc4nc[nH]c4c3)cc2c1Nc1ccc(OCCN(C)C)nc1 [Example 902, 1-(6-(1H-benzo[d]imidazol-6-yl)-4-((6-(2-(dimethylamino)ethoxy)pyridin-3-yl)amino)quinolin-3-yl) ethanone hydrochloride] | 3.3 | – | 2.9 | 3.1 | 0.042 | 12 | 14 | –
CCC(=O)c1cnc2ccc(-c3cc(Cl)c(O)c(Cl)c3)cc2c1Nc1ccc(N2CCC(N(C)C)C2)nc1 (stereo not drawn) [Example 863, 1-(6-(3,5-dichloro-4-hydroxyphenyl)-4-((6-(3-(dimethylamino)pyrrolidin-1-yl)pyridin-3-yl)amino)quinolin-3-yl)propan-1-one] | 0.44 | – | 0.5 | 0.59 | 0.0039 | 14 | 0.31 | –
CN(C)C1CCN(c2ccc(Nc3c(S(C)(=O)=O)cnc4ccc(-c5cc(F)c(O)c(Cl)c5)cc34)cn2)C1 (stereo not drawn) [Example 889, 2-chloro-4-(4-((6-(3-(dimethylamino)pyrrolidin-1-yl)pyridin-3-yl)amino)-3-(methylsulfonyl)quinolin-6-yl)-6-fluorophenol hydrochloride] | 1.5 | – | 2.5 | 1.8 | 0.0092 | 12 | 1.2 | –
CC(=O)c1cnc2ccc(-c3cc(F)c(O)c(Cl)c3)cc2c1N[C@H]1CC[C@H](NC(=O)C(N)C(C)C)CC1 (stereo partly drawn) [Example 907] | 0.016 | – | 0.18 | 0.059 | 0.0047 | 3.7 | 0.033 | –
CC(=O)c1cnc2ccc(-c3ccc4nc[nH]c4c3)cc2c1N[C@H]1CC[C@H](CN(C)C)CC1 [Example 911, 1-(6-(1H-benzo[d]imidazol-6-yl)-4-((1R,4R)-4-((dimethylamino)methyl)cyclohexyl)amino)quinolin-3-yl) ethanone hydrochloride] | 10 | – | 3.2 | 5.4 | 0.13 | 13 | 10 | –
CC(=O)c1cnc2ccc(-c3cc(Cl)c(O)c(Cl)c3)cc2c1N[C@H]1CC[C@H](C(=O)NCCN(C)C)CC1 [Example 892, (1r,4r)-4-((3-acetyl-6-(3,5-dichloro-4-hydroxyphenyl)quinolin-4-yl)amino)-N-(2-(dimethylamino)ethyl)cyclo-hexanecarboxamide hydrochloride] | 0.59 | – | 6.3 | 1.1 | 0.0023 | 100 | 0.4 | –
CS(=O)(=O)c1cnc2ccc(-c3cc(F)c(O)c(Cl)c3)cc2c1N[C@H]1CC[C@H](CN2CCCC2)CC1 [Example 891, 2-chloro-6-fluoro-4-(3-(methylsulfonyl)-4-((1R,4R)-4-(pyrrolidin-1-ylmethyl)cyclohexyl)amino)quinolin-6-yl)phenol hydrochloride] | 0.73 | – | 1.3 | 0.92 | 0.0095 | 2.4 | 0.46 | –
